Measured values: article PMC4979471 (Cell Death Discovery, 2015)
Read-outs that look alike come from different tables or passages of the source.

What was measured:
Experiment in all cases: Kinase selectivity, P33-radiolabeled assay
Assay type in all cases: biochemical
Conditions in all cases: 10 μM ATP
EPHA7 = molecular target: T1, EPHA7 (Homo sapiens, UniProt Q15375)
T1 construct: purchased Reaction Biology Corp
Summary of the method: (§1)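 Values show % enzyme activity normalised to DMSO vehicle. They come from one 10 μM compound concentration run twice, at an ATP level of 10 μM.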

LATS2 = molecular target: T2, LATS2 (Homo sapiens, UniProt Q9NRM7)
T2 construct: purchased Reaction Biology Corp
T2 sequence (Q9NRM7 1-1088): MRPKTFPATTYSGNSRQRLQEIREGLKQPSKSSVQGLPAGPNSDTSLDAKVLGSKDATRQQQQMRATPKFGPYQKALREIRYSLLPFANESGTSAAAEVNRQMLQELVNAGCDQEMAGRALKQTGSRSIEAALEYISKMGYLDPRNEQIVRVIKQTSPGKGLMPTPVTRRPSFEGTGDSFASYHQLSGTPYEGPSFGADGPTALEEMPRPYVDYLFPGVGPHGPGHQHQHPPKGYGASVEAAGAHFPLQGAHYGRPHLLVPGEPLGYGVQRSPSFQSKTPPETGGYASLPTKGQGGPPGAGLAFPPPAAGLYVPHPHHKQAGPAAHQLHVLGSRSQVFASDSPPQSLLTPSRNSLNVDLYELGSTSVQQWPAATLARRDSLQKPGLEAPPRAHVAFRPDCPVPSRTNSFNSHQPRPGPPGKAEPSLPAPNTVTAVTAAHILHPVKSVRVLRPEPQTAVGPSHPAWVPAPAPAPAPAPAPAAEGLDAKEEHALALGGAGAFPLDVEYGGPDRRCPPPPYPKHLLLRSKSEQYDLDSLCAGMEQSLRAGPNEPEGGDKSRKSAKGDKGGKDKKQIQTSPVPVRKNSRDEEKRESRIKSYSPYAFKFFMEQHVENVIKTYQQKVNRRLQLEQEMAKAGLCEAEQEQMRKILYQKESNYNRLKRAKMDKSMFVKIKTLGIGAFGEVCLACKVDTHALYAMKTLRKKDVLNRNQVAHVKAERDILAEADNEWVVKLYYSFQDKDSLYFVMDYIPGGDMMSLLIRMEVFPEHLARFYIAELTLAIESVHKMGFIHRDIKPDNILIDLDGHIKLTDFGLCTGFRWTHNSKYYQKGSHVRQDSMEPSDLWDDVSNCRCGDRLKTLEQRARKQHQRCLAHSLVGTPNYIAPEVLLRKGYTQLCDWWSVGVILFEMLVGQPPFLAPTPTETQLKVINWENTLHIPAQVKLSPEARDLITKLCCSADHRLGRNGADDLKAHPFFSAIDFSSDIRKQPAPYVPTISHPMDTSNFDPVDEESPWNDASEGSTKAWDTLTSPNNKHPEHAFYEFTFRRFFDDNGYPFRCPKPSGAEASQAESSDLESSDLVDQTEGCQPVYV
Summary of the method: as §1

MEKK2 = molecular target: T3, MEKK2 (Homo sapiens, UniProt Q9Y2U5)
T3 construct: purchased Reaction Biology Corp
T3 sequence (Q9Y2U5 1-619): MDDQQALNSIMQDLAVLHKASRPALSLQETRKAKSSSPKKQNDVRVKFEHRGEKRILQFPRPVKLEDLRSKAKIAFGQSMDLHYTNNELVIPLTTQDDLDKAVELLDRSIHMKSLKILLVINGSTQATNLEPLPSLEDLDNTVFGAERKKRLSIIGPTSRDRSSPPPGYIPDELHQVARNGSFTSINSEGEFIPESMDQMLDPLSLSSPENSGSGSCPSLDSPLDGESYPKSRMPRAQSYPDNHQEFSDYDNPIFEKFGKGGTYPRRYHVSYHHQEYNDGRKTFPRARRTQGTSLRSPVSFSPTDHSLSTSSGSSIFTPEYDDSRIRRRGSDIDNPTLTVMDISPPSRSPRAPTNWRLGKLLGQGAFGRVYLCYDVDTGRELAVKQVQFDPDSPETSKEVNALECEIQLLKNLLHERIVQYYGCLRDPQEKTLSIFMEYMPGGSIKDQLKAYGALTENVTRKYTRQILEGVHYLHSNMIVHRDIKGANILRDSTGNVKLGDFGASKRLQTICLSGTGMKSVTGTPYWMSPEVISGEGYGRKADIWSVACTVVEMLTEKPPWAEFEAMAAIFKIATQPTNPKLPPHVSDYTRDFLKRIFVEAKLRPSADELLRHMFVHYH
Summary of the method: as §1

PKAcb = molecular target: T4, PKAcb (Homo sapiens, UniProt P22694)
T4 construct: purchased Reaction Biology Corp
Summary of the method: as §1

[1] = read-out: % Enzyme Activity (relative to DMSO controls) AVG
[2] = read-out: % Enzyme Activity (relative to DMSO controls) Data 1
[3] = read-out: % Enzyme Activity (relative to DMSO controls) Data 2

T1 sequence (Q15375 28-998): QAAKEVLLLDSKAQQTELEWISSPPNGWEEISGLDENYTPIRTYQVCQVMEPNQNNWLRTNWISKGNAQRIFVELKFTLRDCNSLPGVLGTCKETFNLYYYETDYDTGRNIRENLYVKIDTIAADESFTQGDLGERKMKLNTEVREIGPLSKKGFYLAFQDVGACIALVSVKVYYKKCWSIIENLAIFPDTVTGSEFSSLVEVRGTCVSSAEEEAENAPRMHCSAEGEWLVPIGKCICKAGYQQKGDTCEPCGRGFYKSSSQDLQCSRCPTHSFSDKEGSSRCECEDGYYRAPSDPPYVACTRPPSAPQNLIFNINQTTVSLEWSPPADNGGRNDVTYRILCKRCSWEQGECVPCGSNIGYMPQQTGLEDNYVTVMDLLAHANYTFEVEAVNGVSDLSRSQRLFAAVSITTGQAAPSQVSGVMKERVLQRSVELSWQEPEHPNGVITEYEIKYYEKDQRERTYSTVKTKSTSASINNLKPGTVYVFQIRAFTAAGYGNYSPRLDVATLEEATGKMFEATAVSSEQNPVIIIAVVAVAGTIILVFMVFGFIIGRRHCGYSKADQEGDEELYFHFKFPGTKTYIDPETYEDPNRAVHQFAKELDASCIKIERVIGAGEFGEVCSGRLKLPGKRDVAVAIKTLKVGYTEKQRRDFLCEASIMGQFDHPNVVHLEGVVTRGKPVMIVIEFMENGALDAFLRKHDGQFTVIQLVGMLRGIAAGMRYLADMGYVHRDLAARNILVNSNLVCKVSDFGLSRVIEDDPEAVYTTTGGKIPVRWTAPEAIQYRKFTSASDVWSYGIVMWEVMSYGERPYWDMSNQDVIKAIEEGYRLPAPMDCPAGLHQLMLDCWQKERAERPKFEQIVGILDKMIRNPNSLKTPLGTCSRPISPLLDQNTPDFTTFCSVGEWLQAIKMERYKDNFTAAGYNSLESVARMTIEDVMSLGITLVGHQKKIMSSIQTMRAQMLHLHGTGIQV

## CC(C)(C)C(=O)N1N=CC[C@H]1c1ccccc1 [GSK′963]
EPHA7; [1]
  remaining activity at 10 µM: 111%
EPHA7; [2]
  remaining activity at 10 µM: 109%
EPHA7; [3]
  remaining activity at 10 µM: 112%
LATS2; [1]
  remaining activity at 10 µM: 117%
LATS2; [2]
  remaining activity at 10 µM: 112%
LATS2; [3]
  remaining activity at 10 µM: 121%
MEKK2; [1]
  remaining activity at 10 µM: 114%
MEKK2; [2]
  remaining activity at 10 µM: 114%
MEKK2; [3]
  remaining activity at 10 µM: 115%
PKAcb; [1]
  remaining activity at 10 µM: 111%
PKAcb; [2]
  remaining activity at 10 µM: 110%
PKAcb; [3]
  remaining activity at 10 µM: 113%
